From ChEMBL document CHEMBL4837196, “Cytotoxic and Antiangiogenetic Xanthones Inhibiting Tumor Proliferation and Metastasis from Garcinia xipshuanbannaensis” (J Nat Prod, 2021)
One block for each compound: values may come before it. The source made the active and inactive calls. The calls are words filed in the database; no cut-off is given here.

Columns and labels:
Danio rerio [1] = species on record: Danio rerio; experiment: Antiangiogenesis activity in Tg(fli1:EGFP) transgenic zebrafish embryo assessed as change in intersegmental vessels length at 24 uM measured after 48 hrs by confocal microscopy analysis (reference value: 3233.3 micrometer); format: functional
[2] = biological target: Signal transducer and activator of transcription 3 (Homo sapiens) (UniProt P40763); experiment: Inhibition of STAT3 activation in human HeLa cells measured after 12 hrs by western blot analysis; format: cell-based
Sequence of Signal transducer and activator of transcription 3 (Homo sapiens) (P40763 whole entry): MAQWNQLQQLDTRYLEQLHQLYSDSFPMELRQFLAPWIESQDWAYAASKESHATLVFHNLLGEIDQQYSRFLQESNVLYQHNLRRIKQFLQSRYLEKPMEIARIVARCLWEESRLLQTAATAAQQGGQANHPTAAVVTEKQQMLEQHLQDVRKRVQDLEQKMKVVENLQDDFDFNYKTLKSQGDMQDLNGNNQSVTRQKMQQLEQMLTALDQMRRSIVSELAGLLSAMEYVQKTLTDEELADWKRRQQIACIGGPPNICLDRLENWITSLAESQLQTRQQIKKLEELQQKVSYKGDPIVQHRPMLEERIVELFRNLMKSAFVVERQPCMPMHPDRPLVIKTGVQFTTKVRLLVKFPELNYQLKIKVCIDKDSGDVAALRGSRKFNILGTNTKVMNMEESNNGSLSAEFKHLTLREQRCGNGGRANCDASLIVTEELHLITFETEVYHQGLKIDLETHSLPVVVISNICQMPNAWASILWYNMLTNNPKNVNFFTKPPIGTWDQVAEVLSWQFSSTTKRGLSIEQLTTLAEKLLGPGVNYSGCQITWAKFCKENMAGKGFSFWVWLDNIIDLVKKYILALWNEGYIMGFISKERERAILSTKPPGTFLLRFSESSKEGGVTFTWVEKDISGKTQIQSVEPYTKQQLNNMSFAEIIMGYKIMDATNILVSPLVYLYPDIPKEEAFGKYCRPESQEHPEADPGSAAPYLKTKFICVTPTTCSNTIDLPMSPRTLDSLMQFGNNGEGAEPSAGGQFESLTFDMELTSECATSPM

HeLa [3] = experiment: Induction of apoptosis in human HeLa cells assessed as viable cells at 24 uM measured after 48 hrs by Annexin V-FITC/propidium iodide staining based flow cytometric analysis (reference value: 83.1 %); format: functional; conditions: read-out: Activity
HeLa [4] = experiment: Cell cycle arrest in human HeLa cells assessed as accumulation at S phase at 6 uM measured after 48 hrs by PI-staining based flow cytometric analysis (reference value: 51.39%); format: functional
HeLa [5] = experiment: Induction of apoptosis in human HeLa cells assessed as early apoptotic cells at 12 uM measured after 48 hrs by Annexin V-FITC/propidium iodide staining based flow cytometric analysis (reference value: 3.34 %); format: functional
HeLa [6] = experiment: Cell cycle arrest in human HeLa cells assessed as accumulation at G2 phase at 6 uM measured after 48 hrs by PI-staining based flow cytometric analysis (reference value: 8.58%); format: functional
HeLa [7] = experiment: Cell cycle arrest in human HeLa cells assessed as accumulation at G2 phase at 24 uM measured after 48 hrs by PI-staining based flow cytometric analysis (reference value: 8.58%); format: functional
HeLa [8] = experiment: Induction of apoptosis in human HeLa cells assessed as late apoptotic cells at 6 uM measured after 48 hrs by Annexin V-FITC/propidium iodide staining based flow cytometric analysis (reference value: 12.2 %); format: functional
HeLa [9] = experiment: Induction of apoptosis in human HeLa cells assessed as necrotic cells at 6 uM measured after 48 hrs by Annexin V-FITC/propidium iodide staining based flow cytometric analysis (reference value: 1.32 %); format: functional
K562 = experiment: Cytotoxicity against human K562 cells assessed as inhibition of cell proliferation incubated for 48 hrs by MTT assay; format: functional, cell-based; conditions: K562, 48 h
HeLa [10] = experiment: Induction of reactive oxygen species generation in human HeLa cells assessed as increase in ROS level at 2.5 to 30 uM measured after 48 hrs by DCFH-DA staining based flow cytometric analysis; format: functional, cell-based; conditions: dose 2.5-30 µM
[11] = Effect on STAT3 protein level in human HeLa cells at 6 to 24 uM by Western blotting; format: ADME, cell-based; conditions: dose 6-24 µM
HeLa [12] = experiment: Cell cycle arrest in human HeLa cells assessed as accumulation at S phase at 12 uM measured after 48 hrs by PI-staining based flow cytometric analysis (reference value: 51.39%); format: functional
HepG2 [13] = experiment: Cytotoxicity against human HepG2 cells assessed as inhibition of cell proliferation incubated for 48 hrs by MTT assay; format: functional, cell-based; conditions: HepG2, 48 h
HeLa [14] = experiment: Induction of apoptosis in human HeLa cells assessed as late apoptotic cells at 12 uM measured after 48 hrs by Annexin V-FITC/propidium iodide staining based flow cytometric analysis (reference value: 12.2 %); format: functional
HeLa [15] = experiment: Cytotoxicity against human HeLa cells assessed as inhibition of cell proliferation incubated for 48 hrs by MTT assay; format: functional, cell-based
[16] = biological target: Signal transducer and activator of transcription 3 (Homo sapiens) (UniProt P40763); experiment: Inhibition of STAT3 phosphorylation in human HeLa cells measured after 12 hrs by western blot analysis; format: cell-based
HeLa [17] = experiment: Cell cycle arrest in human HeLa cells assessed as accumulation at G0/G1 phase at 6 uM measured after 48 hrs by PI-staining based flow cytometric analysis (reference value: 40.03%); format: functional
HeLa [18] = experiment: Cell cycle arrest in human HeLa cells assessed as accumulation at S phase at 24 uM measured after 48 hrs by PI-staining based flow cytometric analysis (reference value: 51.39%); format: functional
HeLa [19] = experiment: Induction of apoptosis in human HeLa cells assessed as necrotic cells at 12 uM measured after 48 hrs by Annexin V-FITC/propidium iodide staining based flow cytometric analysis (reference value: 1.32 %); format: functional
HeLa [20] = experiment: Induction of apoptosis in human HeLa cells assessed as viable cells at 6 uM measured after 48 hrs by Annexin V-FITC/propidium iodide staining based flow cytometric analysis (reference value: 83.1 %); format: functional; conditions: read-out: Activity
HeLa [21] = experiment: Induction of apoptosis in human HeLa cells assessed as early apoptotic cells at 6 uM measured after 48 hrs by Annexin V-FITC/propidium iodide staining based flow cytometric analysis (reference value: 3.34 %); format: functional
HeLa [22] = experiment: Cell cycle arrest in human HeLa cells assessed as accumulation at G2 phase at 12 uM measured after 48 hrs by PI-staining based flow cytometric analysis (reference value: 8.58%); format: functional
HeLa [23] = experiment: Induction of apoptosis in human HeLa cells assessed as early apoptotic cells at 24 uM measured after 48 hrs by Annexin V-FITC/propidium iodide staining based flow cytometric analysis (reference value: 3.34 %); format: functional
HeLa [24] = experiment: Cell cycle arrest in human HeLa cells assessed as accumulation at G0/G1 phase at 24 uM measured after 48 hrs by PI-staining based flow cytometric analysis (reference value: 40.03%); format: functional
HeLa [25] = experiment: Cell cycle arrest in human HeLa cells assessed as accumulation at G0/G1 phase at 12 uM measured after 48 hrs by PI-staining based flow cytometric analysis (reference value: 40.03%); format: functional
HepG2 [26] = experiment: Antitumour activity against CM-Dil labeled human HepG2 cells xenografted in AB zebrafish embryo assessed as retarded tumor growth measured after 48 hrs by confocal microscopy analysis; format: functional, cell-based; conditions: dose 12-48 µM
HeLa [27] = experiment: Induction of apoptosis in human HeLa cells assessed as late apoptotic cells at 24 uM measured after 48 hrs by Annexin V-FITC/propidium iodide staining based flow cytometric analysis (reference value: 12.2 %); format: functional
Danio rerio [28] = species on record: Danio rerio; experiment: Antiangiogenesis activity in Tg(fli1:EGFP) transgenic zebrafish embryo assessed as change in intersegmental vessels length at 48 uM measured after 48 hrs by confocal microscopy analysis (reference value: 3233.3 micrometer); format: functional
HeLa [29] = experiment: Induction of apoptosis in human HeLa cells assessed as necrotic cells at 24 uM measured after 48 hrs by Annexin V-FITC/propidium iodide staining based flow cytometric analysis (reference value: 1.32 %); format: functional
Danio rerio [30] = species on record: Danio rerio; experiment: Antiangiogenesis activity in Tg(fli1:EGFP) transgenic zebrafish embryo assessed as change in intersegmental vessels length at 12 uM measured after 48 hrs by confocal microscopy analysis (reference value: 3233.3 micrometer); format: functional
HeLa [31] = experiment: Induction of apoptosis in human HeLa cells assessed as viable cells at 12 uM measured after 48 hrs by Annexin V-FITC/propidium iodide staining based flow cytometric analysis (reference value: 83.1 %); format: functional; conditions: read-out: Activity

- inhibition [2]: Dose-Dependent Effect
- inhibition [16]: Active
Compound: COC(C)(C)CCc1c(O)c(O)cc2oc3c4c(c(CC=C(C)C)c(O)c3c(=O)c12)OC(C)(C)C=C4
- Activity (Danio rerio [1]): 2263.2 um
- viability at 24 µM (HeLa [3]): 58.1%
- Activity (HeLa [4]): 38.09%
- Activity (HeLa [5]): 8.23%
- Activity (HeLa [6]): 6.58%
- Activity (HeLa [7]): 1.71%
- Activity (HeLa [8]): 16.1%
- Activity (HeLa [9]): 1.72%
- IC50 (K562): > 10 µM
- Activity (HeLa [10]): Active
- Activity [11]: Non-Toxic
- Activity (HeLa [12]): 29.59%
- IC50 (HepG2 [13]): > 10 µM
- Activity (HeLa [14]): 18%
- IC50 (HeLa [15]): 9.6 µM
- Activity (HeLa [17]): 55.33%
- Activity (HeLa [18]): 31.09%
- Activity (HeLa [19]): 2.63%
- viability at 6 µM (HeLa [20]): 75.2%
- Activity (HeLa [21]): 6.92%
- Activity (HeLa [22]): 4.63%
- Activity (HeLa [23]): 13.6%
- Activity (HeLa [24]): 67.2%
- Activity (HeLa [25]): 65.78%
- Activity (HepG2 [26]): Dose-Dependent Effect
- Activity (HeLa [27]): 24%
- Activity (Danio rerio [28]): 1881.6 um
- Activity (HeLa [29]): 3.76%
- Activity (Danio rerio [30]): 2476.5 um
- viability at 12 µM (HeLa [31]): 71.2%

Compound: COC(=O)C[C@](O)(CCCC(C)(C)O)C(=O)O[C@@H]1C(OC)=C[C@]23CCCN2CCc2cc4c(cc2[C@H]13)OCO4 [OMACETAXINE MEPESUCCINATE]
- IC50 (HeLa [15]): 0.4 µM

Compound: COc1cc([C@@H]2c3cc4c(cc3[C@@H](O[C@@H]3O[C@@H]5CO[C@@H](C)O[C@H]5[C@H](O)[C@H]3O)[C@H]3COC(=O)[C@H]23)OCO4)cc(OC)c1O
- Activity (HepG2 [26]): Dose-Dependent Effect
